According to paper PMC5668910 (Biochemistry and Biophysics Reports, 2015):
pIC50, pKd, pKi: −log10 of the molar value.

Tests used:
Parameters in all cases: species or system guinea pig
[1] = target: T1, gpBLT1 His83Gly^2.67/Lys88Gly^3.21 (Cavia porcellus, UniProt H0VYV8, H83G/K88G/S309A); experiment: saturation binding of LTB4, membrane fraction
[2] = target: T2, original gpBLT1 dN15/Ser309Ala (Cavia porcellus, UniProt H0VYV8, S309A); experiment: saturation binding of LTB4, membrane fraction
[3] = target: T1, gpBLT1 His83Gly^2.67/Lys88Gly^3.21; experiment: competitive ligand binding
[4] = target: T2, original gpBLT1 dN15/Ser309Ala; experiment: competitive ligand binding
[5] = target: purified gpBLT1 His83Gly^2.67/Lys88Gly^3.21 (Cavia porcellus, UniProt H0VYV8, H83G/K88G/S309A); experiment: competitive ligand binding to purified receptor
Chain of purified gpBLT1 His83Gly^2.67/Lys88Gly^3.21 (H0VYV8 1-348 H83G/K88G/S309A): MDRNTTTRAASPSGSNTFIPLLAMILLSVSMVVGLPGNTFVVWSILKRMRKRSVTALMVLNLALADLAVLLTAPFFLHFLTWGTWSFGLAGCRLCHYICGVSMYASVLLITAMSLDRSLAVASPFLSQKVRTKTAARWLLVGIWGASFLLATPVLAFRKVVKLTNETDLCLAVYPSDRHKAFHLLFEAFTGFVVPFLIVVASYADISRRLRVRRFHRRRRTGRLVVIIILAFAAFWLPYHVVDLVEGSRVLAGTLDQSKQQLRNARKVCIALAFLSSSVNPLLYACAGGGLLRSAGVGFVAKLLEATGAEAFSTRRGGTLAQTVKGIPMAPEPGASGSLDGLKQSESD

T1 sequence (H0VYV8 1-348 H83G/K88G/S309A): as above
T2 sequence (H0VYV8 16-348 S309A): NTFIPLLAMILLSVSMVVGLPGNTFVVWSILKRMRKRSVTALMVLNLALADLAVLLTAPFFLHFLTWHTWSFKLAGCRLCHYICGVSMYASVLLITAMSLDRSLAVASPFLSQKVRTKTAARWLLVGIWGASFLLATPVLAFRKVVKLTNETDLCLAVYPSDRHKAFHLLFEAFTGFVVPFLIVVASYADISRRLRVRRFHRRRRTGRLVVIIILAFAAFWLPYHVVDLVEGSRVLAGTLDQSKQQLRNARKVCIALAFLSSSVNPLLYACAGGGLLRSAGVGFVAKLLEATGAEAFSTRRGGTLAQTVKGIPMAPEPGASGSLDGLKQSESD

pKd [1]: 8.09 | pKd [2]: 8.18 | pKi [3]: 7.89 | pKi [4]: 8.42 | pIC50 [5]: 8.62
SMILES: CCCCC/C=C\C[C@@H](O)/C=C/C=C/C=C\[C@@H](O)CCCC(=O)O [LTB4, leukotriene B4]
